# Reference: ChEMBL document CHEMBL3045554, “Synthesis and antimicrobial screening of N-(1-methyl-1H-pyrazole-4-carbonyl)-thiourea derivatives” (2012)
# Active and inactive are the calls of the source. The rule behind the calls is not given here.
# Legend:
# Klebsiella pneumoniae [1] = test: Antimicrobial activity against Klebsiella pneumoniae 126/2007 by microdilution method; assay type: functional
# Staphylococcus aureus [2] = test: Antimicrobial activity against Staphylococcus aureus by microdilution method; assay type: functional
# Pseudomonas aeruginosa [3] = test: Antimicrobial activity against Pseudomonas aeruginosa 5541 by microdilution method; assay type: functional
# Escherichia coli [4] = test: Antimicrobial activity against Escherichia coli 637/2007 by microdilution method; assay type: functional
# Acinetobacter baumannii [5] = test: Antimicrobial activity against Acinetobacter baumannii 15896 by microdilution method; assay type: functional
# Enterococcus faecalis [6] = test: Antimicrobial activity against Enterococcus faecalis 13773 by microdilution method; assay type: functional
# Bacillus subtilis [7] = test: Antimicrobial activity against Bacillus subtilis 10.10.2006 by microdilution method; assay type: functional
# Bacillus subtilis [8] = test: Inhibition of lecithinase production in Bacillus subtilis 10.10.2006 after 7 days; assay type: functional, organism-based
# Klebsiella pneumoniae [9] = test: Effect on gelatinase production in Klebsiella pneumoniae 126/2007 after 24 hr by gelatin hydrolysis test; assay type: functional, organism-based
# Escherichia coli [10] = test: Effect on DNase production in Escherichia coli 637/2007 after 24 hr; assay type: functional, organism-based
# Staphylococcus aureus [11] = test: Effect on esculethol production in Staphylococcus aureus after 24 hr by esculin hydrolysis test; assay type: functional, organism-based
# Klebsiella pneumoniae [12] = test: Effect on amylase production in Klebsiella pneumoniae 126/2007 after 24 hr by starch hydrolysis assay; assay type: functional, organism-based
# Bacillus subtilis [13] = test: Effect on lipase production in Bacillus subtilis 10.10.2006 after 7 days; assay type: functional, organism-based
# Staphylococcus aureus [14] = test: Effect on DNase production in Staphylococcus aureus after 24 hr; assay type: functional, organism-based
# Escherichia coli [15] = test: Effect on amylase production in Escherichia coli 637/2007 after 24 hr by starch hydrolysis assay; assay type: functional, organism-based
# Klebsiella pneumoniae [16] = test: Effect on esculethol production in Klebsiella pneumoniae 126/2007 after 24 hr by esculin hydrolysis test; assay type: functional, organism-based
# Bacillus subtilis [17] = test: Effect on amylase production in Bacillus subtilis 10.10.2006 after 24 hr by starch hydrolysis assay; assay type: functional, organism-based
# Klebsiella pneumoniae [18] = test: Inhibition of caseinase production in Klebsiella pneumoniae 126/2007 after 24 hr by casein hydrolysis assay; assay type: functional, organism-based
# Pseudomonas aeruginosa [19] = test: Effect on amylase production in Pseudomonas aeruginosa 5541 after 24 hr by starch hydrolysis assay; assay type: functional, organism-based
# Acinetobacter baumannii [20] = test: Effect on lipase production in Acinetobacter baumannii 15896 after 7 days; assay type: functional, organism-based
# Staphylococcus aureus [21] = test: Effect on amylase production in Staphylococcus aureus after 24 hr by starch hydrolysis assay; assay type: functional, organism-based
# Klebsiella pneumoniae [22] = test: Effect on DNase production in Klebsiella pneumoniae 126/2007 after 24 hr; assay type: functional, organism-based
# Staphylococcus aureus [23] = test: Inhibition of caseinase production in Staphylococcus aureus after 24 hr by casein hydrolysis assay; assay type: functional, organism-based
# Pseudomonas aeruginosa [24] = test: Effect on lipase production in Pseudomonas aeruginosa 5541 after 7 days; assay type: functional, organism-based
# Staphylococcus aureus [25] = test: Effect on lipase production in Staphylococcus aureus after 7 days; assay type: functional, organism-based
# Enterococcus faecalis [26] = test: Effect on gelatinase production in Enterococcus faecalis 13773 after 24 hr by gelatin hydrolysis test; assay type: functional, organism-based
# Pseudomonas aeruginosa [27] = test: Effect on gelatinase production in Pseudomonas aeruginosa 5541 after 24 hr by gelatin hydrolysis test; assay type: functional, organism-based
# Enterococcus faecalis [28] = test: Effect on amylase production in Enterococcus faecalis 13773 after 24 hr by starch hydrolysis assay; assay type: functional, organism-based
# Escherichia coli [29] = test: Inhibition of caseinase production in Escherichia coli 637/2007 after 24 hr by casein hydrolysis assay; assay type: functional, organism-based
# Bacillus subtilis [30] = test: Inhibition of caseinase production in Bacillus subtilis 10.10.2006 after 24 hr by casein hydrolysis assay; assay type: functional, organism-based
# Bacillus subtilis [31] = test: Effect on gelatinase production in Bacillus subtilis 10.10.2006 after 24 hr by gelatin hydrolysis test; assay type: functional, organism-based
# Acinetobacter baumannii [32] = test: Effect on DNase production in Acinetobacter baumannii 15896 after 24 hr; assay type: functional, organism-based
# Escherichia coli [33] = test: Effect on esculethol production in Escherichia coli 637/2007 after 24 hr by esculin hydrolysis test; assay type: functional, organism-based
# Staphylococcus aureus [34] = test: Effect on gelatinase production in Staphylococcus aureus after 24 hr by gelatin hydrolysis test; assay type: functional, organism-based
# Pseudomonas aeruginosa [35] = test: Inhibition of lecithinase production in Pseudomonas aeruginosa 5541 after 7 days; assay type: functional, organism-based
# Acinetobacter baumannii [36] = test: Effect on amylase production in Acinetobacter baumannii 15896 after 24 hr by starch hydrolysis assay; assay type: functional, organism-based
# Pseudomonas aeruginosa [37] = test: Inhibition of caseinase production in Pseudomonas aeruginosa 5541 after 24 hr by casein hydrolysis assay; assay type: functional, organism-based
# Acinetobacter baumannii [38] = test: Inhibition of caseinase production in Acinetobacter baumannii 15896 after 24 hr by casein hydrolysis assay; assay type: functional, organism-based
# Klebsiella pneumoniae [39] = test: Inhibition of lecithinase production in Klebsiella pneumoniae 126/2007 after 7 days; assay type: functional, organism-based
# Staphylococcus aureus [40] = test: Inhibition of lecithinase production in Staphylococcus aureus after 7 days; assay type: functional, organism-based
# Enterococcus faecalis [41] = test: Effect on DNase production in Enterococcus faecalis 13773 after 24 hr; assay type: functional, organism-based
# Acinetobacter baumannii [42] = test: Inhibition of lecithinase production in Acinetobacter baumannii 15896 after 7 days; assay type: functional, organism-based
# Pseudomonas aeruginosa [43] = test: Effect on DNase production in Pseudomonas aeruginosa 5541 after 24 hr; assay type: functional, organism-based
# Escherichia coli [44] = test: Effect on gelatinase production in Escherichia coli 637/2007 after 24 hr by gelatin hydrolysis test; assay type: functional, organism-based
# Bacillus subtilis [45] = test: Effect on DNase production in Bacillus subtilis 10.10.2006 after 24 hr; assay type: functional, organism-based
# Enterococcus faecalis [46] = test: Effect on esculethol production in Enterococcus faecalis 13773 after 24 hr by esculin hydrolysis test; assay type: functional, organism-based
# Escherichia coli [47] = test: Effect on lipase production in Escherichia coli 637/2007 after 7 days; assay type: functional, organism-based
# Enterococcus faecalis [48] = test: Inhibition of lecithinase production in Enterococcus faecalis 13773 after 7 days; assay type: functional, organism-based
# Bacillus subtilis [49] = test: Effect on esculethol production in Bacillus subtilis 10.10.2006 after 24 hr by esculin hydrolysis test; assay type: functional, organism-based
# Escherichia coli [50] = test: Inhibition of lecithinase production in Escherichia coli 637/2007 after 7 days; assay type: functional, organism-based
# Acinetobacter baumannii [51] = test: Effect on gelatinase production in Acinetobacter baumannii 15896 after 24 hr by gelatin hydrolysis test; assay type: functional, organism-based
# Enterococcus faecalis [52] = test: Inhibition of caseinase production in Enterococcus faecalis 13773 after 24 hr by casein hydrolysis assay; assay type: functional, organism-based
# Enterococcus faecalis [53] = test: Effect on lipase production in Enterococcus faecalis 13773 after 7 days; assay type: functional, organism-based
# Pseudomonas aeruginosa [54] = test: Effect on esculethol production in Pseudomonas aeruginosa 5541 after 24 hr by esculin hydrolysis test; assay type: functional, organism-based
# Klebsiella pneumoniae [55] = test: Effect on lipase production in Klebsiella pneumoniae 126/2007 after 7 days; assay type: functional, organism-based
# Acinetobacter baumannii [56] = test: Effect on esculethol production in Acinetobacter baumannii 15896 after 24 hr by esculin hydrolysis test; assay type: functional, organism-based
smiles,measurement,setting,value
Cc1cccc(NC(=S)NC(=O)c2cnn(C)c2)c1,MIC,Klebsiella pneumoniae [1],1000 µg/mL
same,MIC,Staphylococcus aureus [2],> 1000 µg/mL
same,MIC,Pseudomonas aeruginosa [3],> 1000 µg/mL
same,MIC,Escherichia coli [4],> 1000 µg/mL
same,MIC,Acinetobacter baumannii [5],> 1000 µg/mL
same,MIC,Enterococcus faecalis [6],> 1000 µg/mL
same,MIC,Bacillus subtilis [7],1000 µg/mL
CCCc1ccccc1NC(=S)NC(=O)c1cnn(C)c1,MIC,Klebsiella pneumoniae [1],500 µg/mL
same,inhibition,Bacillus subtilis [8],inactive
same,Activity,Klebsiella pneumoniae [9],inactive
same,Activity,Escherichia coli [10],inactive
same,Activity,Staphylococcus aureus [11],inactive
same,Activity,Klebsiella pneumoniae [12],inactive
same,Activity,Bacillus subtilis [13],inactive
same,Activity,Staphylococcus aureus [14],inactive
same,Activity,Escherichia coli [15],inactive
same,Activity,Klebsiella pneumoniae [16],inactive
same,Activity,Bacillus subtilis [17],inactive
same,inhibition,Klebsiella pneumoniae [18],inactive
same,Activity,Pseudomonas aeruginosa [19],inactive
same,Activity,Acinetobacter baumannii [20],inactive
same,Activity,Staphylococcus aureus [21],inactive
same,Activity,Klebsiella pneumoniae [22],inactive
same,inhibition,Staphylococcus aureus [23],inactive
same,Activity,Pseudomonas aeruginosa [24],inactive
same,Activity,Staphylococcus aureus [25],inactive
same,MIC,Staphylococcus aureus [2],500 µg/mL
same,Activity,Enterococcus faecalis [26],inactive
same,Activity,Pseudomonas aeruginosa [27],inactive
same,MIC,Pseudomonas aeruginosa [3],1000 µg/mL
same,MIC,Escherichia coli [4],1000 µg/mL
same,Activity,Enterococcus faecalis [28],inactive
same,inhibition,Escherichia coli [29],Active
same,inhibition,Bacillus subtilis [30],inactive
same,Activity,Bacillus subtilis [31],inactive
same,Activity,Acinetobacter baumannii [32],inactive
same,Activity,Escherichia coli [33],inactive
same,Activity,Staphylococcus aureus [34],inactive
same,inhibition,Pseudomonas aeruginosa [35],inactive
same,Activity,Acinetobacter baumannii [36],inactive
same,inhibition,Pseudomonas aeruginosa [37],inactive
same,inhibition,Acinetobacter baumannii [38],inactive
same,inhibition,Klebsiella pneumoniae [39],inactive
same,inhibition,Staphylococcus aureus [40],inactive
same,Activity,Enterococcus faecalis [41],inactive
same,inhibition,Acinetobacter baumannii [42],inactive
same,Activity,Pseudomonas aeruginosa [43],inactive
same,Activity,Escherichia coli [44],inactive
same,MIC,Acinetobacter baumannii [5],250 µg/mL
same,Activity,Bacillus subtilis [45],inactive
same,Activity,Enterococcus faecalis [46],inactive
same,Activity,Escherichia coli [47],inactive
same,inhibition,Enterococcus faecalis [48],inactive
same,Activity,Bacillus subtilis [49],inactive
same,inhibition,Escherichia coli [50],inactive
same,Activity,Acinetobacter baumannii [51],inactive
same,inhibition,Enterococcus faecalis [52],inactive
same,MIC,Enterococcus faecalis [6],250 µg/mL
same,Activity,Enterococcus faecalis [53],inactive
same,Activity,Pseudomonas aeruginosa [54],inactive
same,Activity,Klebsiella pneumoniae [55],inactive
same,Activity,Acinetobacter baumannii [56],inactive
same,MIC,Bacillus subtilis [7],500 µg/mL
CCCc1ccc(NC(=S)NC(=O)c2cnn(C)c2)cc1,MIC,Klebsiella pneumoniae [1],> 1000 µg/mL
same,MIC,Staphylococcus aureus [2],> 1000 µg/mL
same,MIC,Pseudomonas aeruginosa [3],> 1000 µg/mL
same,MIC,Escherichia coli [4],> 1000 µg/mL
same,MIC,Acinetobacter baumannii [5],> 1000 µg/mL
same,MIC,Enterococcus faecalis [6],> 1000 µg/mL
same,MIC,Bacillus subtilis [7],> 1000 µg/mL
CC(C)c1ccccc1NC(=S)NC(=O)c1cnn(C)c1,MIC,Klebsiella pneumoniae [1],1000 µg/mL
same,MIC,Staphylococcus aureus [2],> 1000 µg/mL
same,MIC,Pseudomonas aeruginosa [3],> 1000 µg/mL
same,MIC,Escherichia coli [4],> 1000 µg/mL
same,MIC,Acinetobacter baumannii [5],> 1000 µg/mL
same,MIC,Enterococcus faecalis [6],> 1000 µg/mL
same,MIC,Bacillus subtilis [7],> 1000 µg/mL
Cc1ccccc1NC(=S)NC(=O)c1cnn(C)c1,MIC,Klebsiella pneumoniae [1],> 1000 µg/mL
same,MIC,Staphylococcus aureus [2],> 1000 µg/mL
same,MIC,Pseudomonas aeruginosa [3],> 1000 µg/mL
same,MIC,Escherichia coli [4],> 1000 µg/mL
same,MIC,Acinetobacter baumannii [5],> 1000 µg/mL
same,MIC,Enterococcus faecalis [6],> 1000 µg/mL
same,MIC,Bacillus subtilis [7],> 1000 µg/mL
CCc1ccccc1NC(=S)NC(=O)c1cnn(C)c1,MIC,Klebsiella pneumoniae [1],1000 µg/mL
same,inhibition,Bacillus subtilis [8],inactive
same,Activity,Klebsiella pneumoniae [9],inactive
same,Activity,Escherichia coli [10],inactive
same,Activity,Staphylococcus aureus [11],inactive
same,Activity,Klebsiella pneumoniae [12],inactive
same,Activity,Bacillus subtilis [13],inactive
same,Activity,Staphylococcus aureus [14],inactive
same,Activity,Escherichia coli [15],inactive
same,Activity,Klebsiella pneumoniae [16],inactive
same,Activity,Bacillus subtilis [17],inactive
same,inhibition,Klebsiella pneumoniae [18],inactive
same,Activity,Pseudomonas aeruginosa [19],inactive
same,Activity,Acinetobacter baumannii [20],inactive
same,Activity,Staphylococcus aureus [21],inactive
same,Activity,Klebsiella pneumoniae [22],inactive
same,inhibition,Staphylococcus aureus [23],inactive
same,Activity,Pseudomonas aeruginosa [24],inactive
same,Activity,Staphylococcus aureus [25],inactive
same,MIC,Staphylococcus aureus [2],250 µg/mL
same,Activity,Enterococcus faecalis [26],inactive
same,Activity,Pseudomonas aeruginosa [27],inactive
same,MIC,Pseudomonas aeruginosa [3],500 µg/mL
same,MIC,Escherichia coli [4],> 1000 µg/mL
same,Activity,Enterococcus faecalis [28],inactive
same,inhibition,Escherichia coli [29],inactive
same,inhibition,Bacillus subtilis [30],inactive
same,Activity,Bacillus subtilis [31],inactive
same,Activity,Acinetobacter baumannii [32],inactive
same,Activity,Escherichia coli [33],inactive
same,Activity,Staphylococcus aureus [34],inactive
same,inhibition,Pseudomonas aeruginosa [35],inactive
same,Activity,Acinetobacter baumannii [36],inactive
same,inhibition,Pseudomonas aeruginosa [37],inactive
same,inhibition,Acinetobacter baumannii [38],inactive
same,inhibition,Klebsiella pneumoniae [39],Active
same,inhibition,Staphylococcus aureus [40],inactive
same,Activity,Enterococcus faecalis [41],inactive
same,inhibition,Acinetobacter baumannii [42],inactive
same,Activity,Pseudomonas aeruginosa [43],inactive
same,Activity,Escherichia coli [44],inactive
same,MIC,Acinetobacter baumannii [5],250 µg/mL
same,Activity,Bacillus subtilis [45],inactive
same,Activity,Enterococcus faecalis [46],inactive
same,Activity,Escherichia coli [47],inactive
same,inhibition,Enterococcus faecalis [48],inactive
same,Activity,Bacillus subtilis [49],inactive
same,inhibition,Escherichia coli [50],inactive
same,Activity,Acinetobacter baumannii [51],inactive
same,inhibition,Enterococcus faecalis [52],inactive
same,MIC,Enterococcus faecalis [6],> 1000 µg/mL
same,Activity,Enterococcus faecalis [53],inactive
same,Activity,Pseudomonas aeruginosa [54],inactive
same,Activity,Klebsiella pneumoniae [55],inactive
same,Activity,Acinetobacter baumannii [56],inactive
same,MIC,Bacillus subtilis [7],1000 µg/mL
